Measured values taken from patent publication US11191768B2, “Histone acetyltransferase activators and uses thereof” (The Trustees of Columbia University in the City of New York, priority 2014, dated 2021).

Legend:
[1] = cited from earlier work
YAC128 mice = assay: Accelerating rotarod in the YAC128 Huntington disease model; type: in vivo; conditions: YF2 5 mg/kg i.p. daily from age 2 months
Procedure: HAT activator YF2 (U.S. patent application Ser. No. 13/493,490; herein incorporated by reference in its entirety) was tested in the YAC128 Huntington disease model. Animals were treated with YF2 (5 mg/kg, i.p, daily) or vehicle, starting at the age of 2 months.

Compound	Solubility [1]	Rotarod performance of YF2-treated YAC128 mice versus WT mice (YAC128 mice; female mice, 6 months of age, vs WT+YF2 p=0.12734, vs WT+vehicle p=0.1690)	Rotarod performance of YF2-treated YAC128 mice versus WT mice (YAC128 mice; male mice, 4 month old, vs WT+YF2 p=0.1946, vs WT+vehicle p=0.0792)
CCOc1ccccc1C(=O)Nc1ccc(Cl)c(C(F)(F)F)c1 [CTB]	insoluble	–	–
CCCCCCCCCCCCCCCc1cccc(OCC)c1C(=O)Nc1ccc(Cl)c(C(F)(F)F)c1 [CTPB]	insoluble	–	–
CCOc1cccc(OCCN(C)C)c1C(=O)Nc1ccc(Cl)c(C(F)(F)F)c1 [YF2]	–	significance was lost	significance was lost
